The values below come from the supplement of paper PMC12137928.

Where a name gives a salt, the structure may show the parent alone.

The subject of test [1] is HCT116. Kind of test: efficacy (maximum % inhibition of viability vs DMSO); higher = more cytotoxic. The note with it: 72 h. An outline of the steps:
(§1)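 HCT116 cells were plated at 250 per well in 1536-well plates and allowed 5 h to attach. CellTiter-Glo luminescence was normalized to vehicle as 0% and positive control as -100%, followed by pattern correction. Four-parameter Hill fits provided IC50 and maximal efficacy.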

The test system of test [2] is HCT116. The settings on record: 72 h. Summed up: as §1

In the test on HCT116 [1] (ICRF193 200 nM), `Cc1cc2nc3c(=O)[nH]c(=O)nc-3n(C[C@H](O)[C@H](O)[C@H](O)CO)c2cc1C` [Riboflavin] gave an efficacy of 57.7%. In addition, the IC50 cell viability is more than 45.8 µM with HCT116 [2] (ICRF193 0 nM) and 14.2 µM in the test with HCT116 [2] (ICRF193 200 nM).
For the compound `COC(=O)Nc1nc2cc(C(=O)c3ccccc3)ccc2[nH]1` [Mebendazole], the efficacy in the test with HCT116 [1] (ICRF193 0 nM) came out at 55.3%; in the test on HCT116 [1] (ICRF193 200 nM), 61.9%. For the same compound, the values for the IC50 cell viability in the test on HCT116 [2] (ICRF193 0 nM) and with HCT116 [2] (ICRF193 200 nM) were 20.6 µM and 0.92 µM, respectively.
On the same counts, the results for `CC(C)(C)c1ccc(CN2CCN(C(c3ccccc3)c3ccc(Cl)cc3)CC2)cc1` (configuration not stated) [Buclizine HCl] are 42.9%, 59%, 20.6 µM and 20.6 µM.
Consider `Cc1c(C(=O)NN2CCCCC2)nn(-c2ccc(Cl)cc2Cl)c1-c1ccc(Cl)cc1` [Rimonabant], for which the efficacy was 64.4% with HCT116 [1] (ICRF193 0 nM) and 87.3% in the test on HCT116 [1] (ICRF193 200 nM). Moreover, the values for the IC50 cell viability with HCT116 [2] (ICRF193 0 nM) and in the test with HCT116 [2] (ICRF193 200 nM) were 18.3 µM and 29.1 µM, respectively.
For the compound `COc1cc(Nc2c(C#N)cnc3cc(OCCCN4CCN(C)CC4)c(OC)cc23)c(Cl)cc1Cl` [Bosutinib], the efficacy is 106% in the test with HCT116 [1] (ICRF193 0 nM) and 132% in the test on HCT116 [1] (ICRF193 200 nM). The IC50 cell viability amounted to 29.1 µM with HCT116 [2] (ICRF193 0 nM) and 18.3 µM in the test with HCT116 [2] (ICRF193 200 nM).
Regarding `CN(C/C=C/c1ccccc1)Cc1cccc2ccccc12` [Naftifine hydrochloride], the efficacy is 49.9% in the test with HCT116 [1] (ICRF193 0 nM) and 54% with HCT116 [1] (ICRF193 200 nM). The IC50 cell viability is 32.6 µM with HCT116 [2] (ICRF193 0 nM) and 29.1 µM in the test with HCT116 [2] (ICRF193 200 nM).
Consider `C[C@H]1C[C@H]2[C@@H]3CCC4=CC(=O)C=C[C@]4(C)[C@@]3(Cl)[C@@H](O)C[C@]2(C)[C@@]1(O)C(=O)CO` [Beclomethasone], for which the efficacy in the test with HCT116 [1] (ICRF193 0 nM) amounted to 84.6%; in the test with HCT116 [1] (ICRF193 200 nM), 86.6%. For the same compound, the IC50 cell viability was 23.1 µM in the test on HCT116 [2] (ICRF193 0 nM) and 20.6 µM in the test on HCT116 [2] (ICRF193 200 nM).
Consider `Cc1cc(Nc2ncc(Cl)c(Nc3ccccc3S(=O)(=O)C(C)C)n2)c(OC(C)C)cc1C1CCNCC1` [Ceritinib], for which the efficacy with HCT116 [1] (ICRF193 0 nM) is 108%; in the test on HCT116 [1] (ICRF193 200 nM), 105%. Further, the IC50 cell viability in the test with HCT116 [2] (ICRF193 0 nM) stood at 18.3 µM; in the test with HCT116 [2] (ICRF193 200 nM), 29.1 µM.
On to `C[C@@H]1C[C@H]2[C@@H]3C[C@H](F)C4=CC(=O)C=C[C@]4(C)[C@@]3(F)[C@@H](O)C[C@]2(C)[C@@]1(OC(=O)c1ccco1)C(=O)SCF` [Fluticasone furoate], for which the efficacy in the test with HCT116 [1] (ICRF193 0 nM) came out at 83.8%. Further, the IC50 cell viability with HCT116 [2] (ICRF193 0 nM) was 29.1 µM; in the test on HCT116 [2] (ICRF193 200 nM) it was more than 45.8 µM.
As for `O=C(O)c1ccc(-n2nc(-c3ccccc3O)nc2-c2ccccc2O)cc1` [Deferasirox], the efficacy in the test with HCT116 [1] (ICRF193 0 nM) was found to be 99.7%; in the test on HCT116 [1] (ICRF193 200 nM) it was 109%. For the same compound, the IC50 cell viability stood at 18.3 µM with HCT116 [2] (ICRF193 0 nM) and 29.1 µM in the test with HCT116 [2] (ICRF193 200 nM).
On the same counts, the results for `C[n+]1cc2c3c(ccc2c2ccc4cc5c(cc4c21)OCO5)OCO3` [Sanguinarine] are 98.2%, 91.6%, 2.83 µM and 2.53 µM.
